The test deals with Methicillin Resistant Staphylococcus aureus (MRSA), Escherichia coli and/or Candida albicans. The test is described as follows: Minimal inhibitory concentration (MIC) assay, microdilution. Type of test: cell-based. To be noted: MIC not more than 1 dilution from the reference peptide (Pep001 or MD012) counts as equal activity. The text has this: To compare antimicrobial activity of the mutants, the inventors made use of the minimal inhibitory concentration (MIC) assay, extensively described in the literature and which has become a world wide standardized test for, e.g., determining susceptibility of strains towards antibiotics (reference “National Committee for Clinical Laboratory Standards: Performance standards for antimicrobial susceptibility testing; fourteenth informational supplement. M100-S14, Volume 24, Wayne, Pa.; 2004.”). The MIC assay is a fast, reliable assay that is used throughout the world in medical microbiology divisions to test e.g., antibiotic response of clinical isolates to monitor antibiotic therapy. MIC values represent the lowest concentration of antibiotic or antifungal that inhibits >90% of growth of the micro-organism. In hospitals MIC values are also used to determine strength of antibiotic therapy where one of the pharmacokinetic parameters is expressed as “hours over MIC”. The inventors therefore feel that MIC values, in contrast to e.g., killing assays, more closely relate to clinical efficacy of the drug and predict more correctly the success of a drug in the clinic.
Antimicrobial properties of the different peptides against a gram negative bacteria (Escherichia coli ATCC 035), a gram positive bacteria (Methicillin Resistant Staphylococcus aureus (MRSA) ATCC 2141) both obtained from the American Type Culture Collection (ATCC, Manassas (VA), USA) and Yeast (Candia Albicans Y01-19; clinical isolate of LUMC, Leiden, the Netherlands) were used for the MIC determination.
Minimal inhibitory concentrations (MICs) were determined by microdilution method according to CLSI guidelines using RPMI1640 medium diluted 1:4 in […] sterile filtered MilliQ and an bacterial inoculum of 5×10^5 CFU/ml. Plates were read after 20-24 h incubation at 35° C. in ambient air. MICs were recorded as the lowest concentration that inhibited visible growth.
Both tables show the MIC values of the various peptides for Methicillin Resistant Staphylococcus aureus (MRSA), Escherichia coli and/or Candida albicans. […]
For orientation: Broth dilution looks for growth in wells or tubes with falling amounts of substance.
Turning to RRRRQWC [RRRRQWC (SEQ ID NO:141)], the “antimicrobial activity (MIC) compared with the reference peptide” value is “acceptable antimicrobial activity”. RRRRSWC [RRRRSWC (SEQ ID NO:142)]: the “antimicrobial activity (MIC) compared with the reference peptide” value is “acceptable antimicrobial activity”.

On to RRRRSVC [RRRRSVC (SEQ ID NO:143)], for which the “antimicrobial activity (MIC) compared with the reference peptide” value is recorded as “acceptable antimicrobial activity”.

These data come from patent US20090069244A1, “Mutants of lactoferrin” (AM-Pharma B.V., priority 2007, published 2009).
